Consider eight compounds from patent US20160108049A1 (TAKEDA Gmbh, priority 2011, published 2016).

One experiment deals with T1, PDE4B1 (Homo sapiens, UniProt Q07343).
T1 construct: made in house; host or cells: SF21 insect cells (baculovirus; virus made in SF9 cells, pCR-Bac vector)
The experiment in a line: Inhibition of PDE4 activity (PDE4B1, SPA assay). It counts as biochemical. The settings on record: recombinant PDE4B1, 0.5 μM cAMP; read-out: PDE4B1 Inhibitory values measured as -logIC50 (converted). The method, boiled down: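 Read-out is SPA yttrium silicate bead scintillation after IBMX-containing beads stop the reaction. Insect-cell (SF21) lysate enzyme hydrolysed 0.5 μM [3H]cAMP at pH 7.4 with 5 mM Mg2+ for 15 min after a 5 min 37 °C preincubation; IC50 fitted by non-linear regression.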

In another experiment the target is T2, human PDE5 (Homo sapiens, UniProt O76074).
T2 construct: from tissue; host or cells: human platelets from fresh donor blood (platelet lysate)
Nature of the experiment: Inhibition of PDE5 activity (platelet lysate, SPA assay). In kind it is biochemical. The settings on record: 0.5 μM cGMP, read-out: PDE5 Inhibitory values measured as -logIC50 (converted). The gist of the method: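 SPA readout of [3H]cGMP hydrolysis (0.5 μM, 15 min, 37 °C after 5 min preincubation), stopped with yttrium silicate beads containing IBMX. Enzyme was lysate from human platelets, used at 10–20% substrate turnover, with PDE3 (motapizone 1 μM) and PDE2 (10 nM) blockers present. IC50 values fitted non-linearly from concentration-effect curves.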

T1 sequence (Q07343 whole entry): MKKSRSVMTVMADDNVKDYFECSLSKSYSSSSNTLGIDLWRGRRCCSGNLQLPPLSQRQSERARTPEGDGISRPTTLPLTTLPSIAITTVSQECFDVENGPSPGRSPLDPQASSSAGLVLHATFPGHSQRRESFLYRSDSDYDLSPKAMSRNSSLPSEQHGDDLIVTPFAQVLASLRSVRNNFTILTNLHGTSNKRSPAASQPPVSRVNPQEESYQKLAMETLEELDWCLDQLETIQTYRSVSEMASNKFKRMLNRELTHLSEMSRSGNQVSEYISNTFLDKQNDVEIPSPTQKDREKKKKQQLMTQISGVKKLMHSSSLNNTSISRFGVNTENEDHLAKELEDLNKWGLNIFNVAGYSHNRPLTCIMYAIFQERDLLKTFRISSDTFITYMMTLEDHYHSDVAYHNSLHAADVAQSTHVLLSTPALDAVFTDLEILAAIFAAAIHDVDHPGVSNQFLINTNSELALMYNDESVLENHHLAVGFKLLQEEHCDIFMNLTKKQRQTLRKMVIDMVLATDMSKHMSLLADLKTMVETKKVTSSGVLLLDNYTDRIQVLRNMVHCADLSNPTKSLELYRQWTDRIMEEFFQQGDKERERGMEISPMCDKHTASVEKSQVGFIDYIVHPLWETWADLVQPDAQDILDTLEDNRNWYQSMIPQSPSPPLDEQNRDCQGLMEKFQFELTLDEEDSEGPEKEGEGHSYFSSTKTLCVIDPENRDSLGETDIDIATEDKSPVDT

On to `COc1ccc(C2=NN(C3CCN(C(=O)[C@@H](CCC(=O)N(C)C)NC(=O)c4c(C)[nH]c5c(-c6c(OCC7CC7)ccc7c6OCO7)ncnc45)CC3)C(=O)C(C)(C)C2)cc1OC` [Example 118, 4-[5-(cyclopropylmethoxy)-1,3-benzodioxol-4-yl]-N-[(2R)-1-{4-[3-(3,4-dimethoxyphenyl)-5,5-dimethyl-6-oxo-5,6-dihydropyridazin-1(4H)-yl]piperidin-1-yl}-5-(dimethylamino)-1,5-dioxopentan-2-yl]-6-methyl-5H-pyrrolo[3,2-d]pyrimidine-7-carboxamide], for which the IC50 at PDE4B1 was 1 to 10 nM; at human PDE5 it was under 1 nM.
`COc1ccc(C2=NN(C3CCN(C(=O)[C@H](NC(=O)c4c[nH]c5c(-c6c(OCC7CC7)ccc7c6OCO7)ncnc45)C(C)C)CC3)C(=O)[C@@H]3CCCC[C@H]23)cc1OC` [Example 119, 4-[5-(cyclopropylmethoxy)-1,3-benzodioxol-4-yl]-N-[(2R)-1-{4-[(4aS,8aR)-4-(3,4-dimethoxyphenyl)-1-oxo-4a,5,6,7,8,8a-hexahydrophthalazin-2(1H)-yl]piperidin-1-yl}-3-methyl-1-oxobutan-2-yl]-5H-pyrrolo[3,2-d]pyrimidine-7-carboxamide]: the IC50 on PDE4B1 and on human PDE5 was under 1 nM each time.
Turning to `COc1ccc(C2=NN(C3CCN(C(=O)[C@H](NC(=O)c4c(C)[nH]c5c(-c6c(OCC7CC7)ccc7c6OCO7)ncnc45)C(C)C)CC3)C(=O)[C@@H]3CCCC[C@H]23)cc1OC` [Example 120, 4-[5-(cyclopropylmethoxy)-1,3-benzodioxol-4-yl]-N-[(2R)-1-{4-[(4aS,8aR)-4-(3,4-dimethoxyphenyl)-1-oxo-4a,5,6,7,8,8a-hexahydrophthalazin-2(1H)-yl]piperidin-1-yl}-3-methyl-1-oxobutan-2-yl]-6-methyl-5H-pyrrolo[3,2-d]pyrimidine-7-carboxamide], the IC50 at PDE4B1 and at human PDE5 was 1 to 10 nM in each case.
On to `COc1ccc(C2=NN(C3CCN(C(=O)[C@H](NC(=O)c4c[nH]c5c(-c6c(OCC7CC7)ccc7c6OCO7)ncnc45)C(C)(C)C)CC3)C(=O)[C@@H]3CCCC[C@H]23)cc1OC` [Example 121, 4-[5-(cyclopropylmethoxy)-1,3-benzodioxol-4-yl]-N-[(2R)-1-{4-[(4aS,8aR)-4-(3,4-dimethoxyphenyl)-1-oxo-4a,5,6,7,8,8a-hexahydrophthalazin-2(1H)-yl]piperidin-1-yl}-3,3-dimethyl-1-oxobutan-2-yl]-5H-pyrrolo[3,2-d]pyrimidine-7-carboxamide], for which the IC50 at PDE4B1 and on human PDE5 was 1 to 10 nM each time.
Turning to `COc1ccc(C2=NN(C3CCN(C(=O)CNC(=O)c4c[nH]c5c(-c6c(OCC7CC7)ccc7c6OCO7)ncnc45)CC3)C(=O)C3(CCCC3)C2)cc1OC` [Example 122, 4-[5-(cyclopropylmethoxy)-1,3-benzodioxol-4-yl]-N-(2-{4-[9-(3,4-dimethoxyphenyl)-6-oxo-7,8-diazaspiro[4.5]dec-8-en-7-yl]piperidin-1-yl}-2-oxoethyl)-5H-pyrrolo[3,2-d]pyrimidine-7-carboxamide], the IC50 on PDE4B1 and at human PDE5 was 1 to 10 nM throughout.
Regarding `COc1ccc(C2=NN(C3CCN(C(=O)[C@@H](Cc4ccccc4)NC(=O)c4c[nH]c5c(-c6c(OCC7CC7)ccc7c6OCO7)ncnc45)CC3)C(=O)C3(CCCC3)C2)cc1OC` [Example 123, 4-[5-(cyclopropylmethoxy)-1,3-benzodioxol-4-yl]-N-[(2R)-1-{4-[9-(3,4-dimethoxyphenyl)-6-oxo-7,8-diazaspiro[4.5]dec-8-en-7-yl]piperidin-1-yl}-1-oxo-3-phenylpropan-2-yl]-5H-pyrrolo[3,2-d]pyrimidine-7-carboxamide], the IC50 on PDE4B1 and at human PDE5 was 1 to 10 nM each time.
Regarding `COc1ccc(C2=NN(C3CCN(C(=O)[C@@H](Cc4ccccc4)NC(=O)c4c(C)[nH]c5c(-c6c(OCC7CC7)ccc7c6OCO7)ncnc45)CC3)C(=O)C3(CCCC3)C2)cc1OC` [Example 124, 4-[5-(cyclopropylmethoxy)-1,3-benzodioxol-4-yl]-N-[(2R)-1-{4-[9-(3,4-dimethoxyphenyl)-6-oxo-7,8-diazaspiro[4.5]dec-8-en-7-yl]piperidin-1-yl}-1-oxo-3-phenylpropan-2-yl]-6-methyl-5H-pyrrolo[3,2-d]pyrimidine-7-carboxamide], the IC50 at PDE4B1 and at human PDE5 was 1 to 10 nM each time.
For `COc1ccc(C2=NN(C3CCN(C(=O)[C@H](Cc4cccnc4)NC(=O)c4c[nH]c5c(-c6c(OCC7CC7)ccc7c6OCO7)ncnc45)CC3)C(=O)C3(CCCC3)C2)cc1OC` [Example 125, 4-[5-(cyclopropylmethoxy)-1,3-benzodioxol-4-yl]-N-[(2S)-1-{4-[9-(3,4-dimethoxyphenyl)-6-oxo-7,8-diazaspiro[4.5]dec-8-en-7-yl]piperidin-1-yl}-1-oxo-3-(pyridin-3-yl)propan-2-yl]-5H-pyrrolo[3,2-d]pyrimidine-7-carboxamide], the IC50 on PDE4B1 and on human PDE5 was 1 to 10 nM each time.
